Measurements as given in patent publication US20230056335A1, “TOPICAL FORMULATION CONTAINING RAPAMYCIN” (NOBELPHARMA CO., LTD., priority 2020, published 2023).

Legend:
[1] = Solubility of sirolimus in each single solvent (visual observation); assay type: physicochemical; conditions: sirolimus:solvent 1:50 (weight ratio)
Method: Sirolimus was mixed into each solvent shown in Table 1 so that sirolimus:solvent was a ratio of 1:50 (weight ratio), heating and ultrasonic irradiation were performed thereon in a water bath of about 50° C., and solubility was confirmed by visual observation.

[2] = Effects of mixing amount of BHT on stability of sirolimus, HPLC quantification; assay type: physicochemical; conditions: BHT mixed at a concentration of 1% or higher; 40° C. and 50° C. for 2 weeks
Method: Quantification of sirolimus was performed by conducting an HPLC test under the following conditions and comparing the area of a sirolimus peak in a test substance and the area of a sirolimus peak in a sirolimus standard.
Detector: ultraviolet absorption photometer (detection wavelength: 278 nm)
Column: stainless steel tube with internal diameter of 4.6 mm and length of 250 mm filled with octadecylsilyl-silica gel for chromatography
Column temperature: constant temperature of about 40° C.
Mobile phase: acetonitrile/0.02 mol/L ammonium acetate buffer (pH 6.0)=13/7
Solutions were prepared by mixing various concentrations of BHT into the ethanol solution of sirolimus, and the solutions were stored at 40° C. and 50° C. for 2 weeks. Quantification of sirolimus was performed on samples after the storage by the same method as that in Reference Example 2 to calculate residual ratios.

EFT-400 kit skin model = assay: Penetration test for ointment into skin model; assay type: in vitro ADME
Method: Penetration of an ointment into a skin model was tested using the sirolimus ointment prepared in Example 4 as a test substance and an EFT-400 kit manufactured by MetTec Corporation as the skin model.
Skin model cells were transferred to a 6-well plate into which an EFT-400 assay medium was dispensed, and the cells were incubated overnight (for 16 to 18 hours) in a carbon dioxide incubator (37° C., 5% CO2, under a humidified condition).
About 50 mg of the test substance was applied onto the center of the cultured skin cells and evenly spread on the cells. These cells were incubated for 24 hours in a carbon dioxide incubator (37° C., 5% CO2, under a humidified condition). […]
Then, the sample solution was diluted 10-fold with the blank matrix, and 20 μL of the diluted sample solution was collected in a PP tube. 20 μL of acetonitrile, 20 μL of the internal standard solution, and 50 μL methanol were added to and mixed with the diluted sample solution, and the mixture was subjected to LC/MS/MS under the following conditions to quantify a sirolimus concentration in the measurement sample. The mass of sirolimus that transferred to the dermic layer was calculated from the obtained value of the sirolimus concentration and the mass of the dermic layer used in the preparation of the sample solution. […]

CO[C@H]1C[C@@H]2CC[C@@H](C)[C@@](O)(O2)C(=O)C(=O)N2CCCC[C@H]2C(=O)O[C@H]([C@H](C)C[C@@H]2CC[C@@H](O)[C@H](OC)C2)CC(=O)[C@H](C)/C=C(\C)[C@@H](O)[C@@H](OC)C(=O)[C@H](C)C[C@H](C)/C=C/C=C/C=C/1C [sirolimus]
Solubility in a single solvent ([1]; each solvent of Table 1): did not dissolve
Solubility ([1]; solvent 1,3 Butylene glycol, about 50° C.): Insoluble (cloudy liquid)
Solubility ([1]; solvent Diethyl sebacate, about 50° C.): Insoluble (cloudy liquid)
Solubility ([1]; solvent Diisopropyl sebacate, about 50° C.): Insoluble (cloudy liquid)
Solubility ([1]; solvent Ethylene glycol salicylate, about 50° C.): Insoluble (cloudy liquid)
Solubility ([1]; solvent Medium-chain fatty acid triglyceride, heating and ultrasonic irradiation about 50° C.): Insoluble (cloudy liquid)
Solubility ([1]; solvent Polyethylene glycol (Macrogol 400), about 50° C.): Insoluble (cloudy liquid)
Solubility ([1]; solvent Propylene glycol, about 50° C.): Insoluble (cloudy liquid)
Solubility ([1]; solvent Squalane, about 50° C.): Insoluble (cloudy liquid)
Solubility ([1]; solvent Triacetin, about 50° C.): Insoluble (cloudy liquid)
Stability of sirolimus [2]: stability of sirolimus was maintained
Rate of sirolimus transferred to the dermic layer (EFT-400 kit skin model; sirolimus ointment prepared in Example 4, about 50 mg applied, 24 hours incubation, LC/MS/MS): 1.402 % with respect to the indicated dose
Skin penetrating properties (EFT-400 kit skin model; sirolimus ointment prepared in Example 4, EFT-400 skin model): sufficiently maintained
